The supplement of paper PMC10307832

What was measured:
Experiment in all cases: relative viability (nuclei count vs DMSO), 5 days (fraction); higher = more cells survive
[1] = tested on: NCI-H1792
In short: (§1)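 Relative viability equals treated-well nuclei counts divided by vehicle-well nuclei counts. Counts came from 4× images of lung cancer cell lines grown in 1536-well plates for 5 days after pin-tool dosing on the day after seeding. Dosing used one drug alone or a fixed anchor-drug dose plus five library-drug doses (not always all listed) in √10 steps, and values are medians of duplicate plates.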

[2] = tested on: LC-2-ad
In short: as §1

[3] = tested on: SK-LU-1
In short: as §1

[4] = tested on: LXF-289
In short: as §1

[5] = tested on: NCI-H2085
In short: as §1

[6] = tested on: HCC-78
In short: as §1

[7] = tested on: LU99A
In short: as §1

[8] = tested on: NCI-H1755
In short: as §1

[9] = tested on: COR-L 105
In short: as §1

[10] = tested on: NCI-H460
In short: as §1

[11] = tested on: HCC-366
In short: as §1

[12] = tested on: EPLC-272H
In short: as §1

[13] = tested on: A-427
In short: as §1

[14] = tested on: NCI-H1975
In short: as §1

[15] = tested on: HOP-62
In short: as §1

[16] = tested on: LCLC-97TM1
In short: as §1

[17] = tested on: UMC-11
In short: as §1

[18] = tested on: NCI-H1915
In short: as §1

COc1cc(N2CCC(C(N)=O)CC2)ccc1Nc1nc(N)c(Cl)c(Nc2ccccc2S(=O)(=O)C(C)C)n1 [HG-5-88-01] + CC(C)C[C@H](NC(=O)[C@H](Cc1ccccc1)NC(=O)c1cnccn1)B(O)O [Bortezomib] (partner 0.002 µM)
relative viability ([1]; first compound 0.04 µM): 0.975
relative viability ([1]; first compound 0.1265 µM): 0.929
relative viability ([1]; first compound 0.4 µM): 0.941
relative viability ([1]; first compound 1.265 µM): 0.817
relative viability ([1]; first compound 4 µM): 0.958
relative viability ([2]; first compound 0.04 µM): 1.06
relative viability ([2]; first compound 0.1265 µM): 1.04
relative viability ([2]; first compound 0.4 µM): 0.945
relative viability ([2]; first compound 1.265 µM): 0.973
relative viability ([2]; first compound 4 µM): 0.819
relative viability ([3]; first compound 0.04 µM): 0.976
relative viability ([3]; first compound 0.1265 µM): 1.2
relative viability ([3]; first compound 0.4 µM): 1.07
relative viability ([3]; first compound 1.265 µM): 0.973
relative viability ([3]; first compound 4 µM): 0.336
relative viability ([4]; first compound 0.04 µM): 1.04
relative viability ([4]; first compound 0.1265 µM): 0.994
relative viability ([4]; first compound 0.4 µM): 0.909
relative viability ([4]; first compound 1.265 µM): 1.05
relative viability ([4]; first compound 4 µM): 0.981
relative viability ([5]; first compound 0.04 µM): 0.986
relative viability ([5]; first compound 0.1265 µM): 1.13
relative viability ([5]; first compound 0.4 µM): 0.922
relative viability ([5]; first compound 1.265 µM): 1.01
relative viability ([5]; first compound 4 µM): 0.917
relative viability ([6]; first compound 0.04 µM): 0.467
relative viability ([6]; first compound 0.1265 µM): 0.369
relative viability ([6]; first compound 0.4 µM): 0.393
relative viability ([6]; first compound 1.265 µM): 0.218
relative viability ([6]; first compound 4 µM): 0.211
relative viability ([7]; first compound 0.04 µM): 1.09
relative viability ([7]; first compound 0.1265 µM): 1.15
relative viability ([7]; first compound 0.4 µM): 1.03
relative viability ([7]; first compound 1.265 µM): 1.21
relative viability ([7]; first compound 4 µM): 1.07
relative viability ([8]; first compound 0.1265 µM): 0.911
relative viability ([8]; first compound 0.4 µM): 0.885
relative viability ([8]; first compound 1.265 µM): 0.92
relative viability ([8]; first compound 4 µM): 0.975
relative viability ([9]; first compound 0.04 µM): 0.875
relative viability ([9]; first compound 0.1265 µM): 0.77
relative viability ([9]; first compound 0.4 µM): 0.619
relative viability ([9]; first compound 1.265 µM): 0.375
relative viability ([9]; first compound 4 µM): 0.531
relative viability ([10]; first compound 0.04 µM): 0.955
relative viability ([10]; first compound 0.1265 µM): 1.17
relative viability ([10]; first compound 0.4 µM): 1.09
relative viability ([10]; first compound 1.265 µM): 1.04
relative viability ([10]; first compound 4 µM): 1.28
relative viability ([11]; first compound 0.04 µM): 1.11
relative viability ([11]; first compound 0.1265 µM): 1.09
relative viability ([11]; first compound 0.4 µM): 0.972
relative viability ([11]; first compound 1.265 µM): 1.04
relative viability ([11]; first compound 4 µM): 1.24
relative viability ([12]; first compound 0.04 µM): 0.854
relative viability ([12]; first compound 0.1265 µM): 0.941
relative viability ([12]; first compound 0.4 µM): 1
relative viability ([12]; first compound 1.265 µM): 0.851
relative viability ([12]; first compound 4 µM): 0.385
relative viability ([13]; first compound 0.04 µM): 0.968
relative viability ([13]; first compound 0.1265 µM): 0.955
relative viability ([13]; first compound 0.4 µM): 1.01
relative viability ([13]; first compound 1.265 µM): 1.05
relative viability ([13]; first compound 4 µM): 0.804
relative viability ([14]; first compound 0.04 µM): 0.349
relative viability ([14]; first compound 0.1265 µM): 0.452
relative viability ([14]; first compound 0.4 µM): 0.381
relative viability ([14]; first compound 1.265 µM): 0.344
relative viability ([14]; first compound 4 µM): 0.23
relative viability ([15]; first compound 0.04 µM): 0.684
relative viability ([15]; first compound 0.1265 µM): 0.732
relative viability ([15]; first compound 0.4 µM): 0.77
relative viability ([15]; first compound 1.265 µM): 0.76
relative viability ([15]; first compound 4 µM): 0.732
relative viability ([16]; first compound 0.04 µM): 1.05
relative viability ([16]; first compound 0.1265 µM): 0.313
relative viability ([16]; first compound 0.4 µM): 0.308
relative viability ([16]; first compound 1.265 µM): 0.546
relative viability ([16]; first compound 4 µM): 0.213
relative viability ([17]; first compound 0.04 µM): 0.769
relative viability ([17]; first compound 0.1265 µM): 0.82
relative viability ([17]; first compound 0.4 µM): 0.642
relative viability ([17]; first compound 1.265 µM): 0.837
relative viability ([17]; first compound 4 µM): 0.494
relative viability ([18]; first compound 0.04 µM): 0.977
relative viability ([18]; first compound 0.1265 µM): 0.941
relative viability ([18]; first compound 0.4 µM): 0.941
relative viability ([18]; first compound 1.265 µM): 0.974
relative viability ([18]; first compound 4 µM): 0.621
